Assay results: ChEMBL document CHEMBL1126972, “Synthesis of 2-imidazolidinylidenepropanedinitrile derivatives as stimulators of gastrointestinal motility” (J Med Chem, 1993)
Calls of active or inactive are those of the source. No cut-off for these calls is given here.

Organism: Cavia porcellus
Assay: In vitro gastrointestinal motility enhancing activity was determined by potentiating action on electrically evoked contraction of the isolated guinea pig ileum; the maximum contraction was not achieved to 30%
Type: functional
Conditions: not given

SMILES | EC30
CN(C)C(=O)Oc1cccc([N+](C)(C)C)c1 | inactive

Target: Acetylcholinesterase (Homo sapiens) (UniProt P22303)
Sequence (P22303 whole entry): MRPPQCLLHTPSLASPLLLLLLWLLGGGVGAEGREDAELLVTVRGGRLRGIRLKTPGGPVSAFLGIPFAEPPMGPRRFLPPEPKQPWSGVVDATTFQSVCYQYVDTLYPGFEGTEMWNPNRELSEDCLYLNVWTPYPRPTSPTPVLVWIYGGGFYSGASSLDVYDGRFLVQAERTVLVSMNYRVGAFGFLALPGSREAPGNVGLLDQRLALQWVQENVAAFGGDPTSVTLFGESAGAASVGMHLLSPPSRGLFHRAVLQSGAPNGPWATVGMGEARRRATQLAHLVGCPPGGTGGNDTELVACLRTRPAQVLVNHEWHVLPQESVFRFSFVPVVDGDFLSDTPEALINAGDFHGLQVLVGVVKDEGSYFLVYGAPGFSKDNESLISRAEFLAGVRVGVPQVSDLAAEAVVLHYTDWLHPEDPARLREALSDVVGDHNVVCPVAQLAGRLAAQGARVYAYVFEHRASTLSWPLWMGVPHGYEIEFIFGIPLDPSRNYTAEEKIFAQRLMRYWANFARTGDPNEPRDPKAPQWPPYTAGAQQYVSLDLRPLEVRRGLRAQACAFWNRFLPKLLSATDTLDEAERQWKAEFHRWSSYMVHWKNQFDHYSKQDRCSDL
Conditions: Cavia porcellus; Ileum

SMILES | EC30
N#CC(C#N)=C1NCCN1CCNCc1ccc(CN2CCCCCC2)o1 | 0.32 µM
CC1CCCCN1Cc1ccc(CNCCN2CCNC2=C(C#N)C#N)o1 (stereo not given) | 0.91 µM
CN(C)Cc1ccc(CNCCN2CCNC2=C(C#N)C#N)o1 | 0.37 µM
COC1CCN(Cc2ccc(CNCCN3CCNC3=C(C#N)C#N)o2)CC1 | 11 µM
CNC(NCCNCc1ccc(CN(C(C)C)C(C)C)o1)=C(C#N)C#N | 8.5 µM
CNC(=C[N+](=O)[O-])NCCSCc1ccc(CN(C)C)o1 | 1.8 µM
CN1CCN(Cc2ccc(CNCCN3CCNC3=C(C#N)C#N)o2)CC1 | 1.7 µM
N#CC(C#N)=C1NCCN1CCNCc1ccc(CN2CCSCC2)o1 | 2.9 µM
CC1CCN(Cc2ccc(CNCCN3CCNC3=C(C#N)C#N)o2)CC1 | 0.26 µM
N#CC(C#N)=C1NCCN1CCNCc1ccc(CN2CCCC(O)C2)o1 (stereo not given) | 0.46 µM
CCN(C)Cc1ccc(CNCCN2CCNC2=C(C#N)C#N)o1 | 0.54 µM
N#CC(C#N)=C1NCCN1CCNCc1ccc(CN2CCCCC2)o1 | 0.016 µM
CCN(CC)CCNC(=O)c1cc(Cl)c(N)cc1OC | 0.43 µM
COC1CCCN(Cc2ccc(CNCCN3CCNC3=C(C#N)C#N)o2)C1 (stereo not given) | 1.4 µM
N#CC(C#N)=C1NCCN1CCNCc1ccc(CN2CCCC2)o1 | 0.31 µM
CNC(NCCNCc1ccc(CN(C)C)o1)=C(C#N)C#N | 2.1 µM
CCN(CC)Cc1ccc(CNCCN2CCNC2=C(C#N)C#N)o1 | 1 µM
N#CC(C#N)=C1NCCN1CCNCc1ccc(CN2CCC(O)CC2)o1 | 0.43 µM
CNC(NCCNCc1ccc(CN2CCCC2)o1)=C(C#N)C#N | 2 µM
C/N=c1\c(O)c(O)\c1=N/CCNCc1ccc(CN2CCCCC2)o1 | 7.2 µM
CNC(NCCNCc1ccc(CN2CCCCC2)o1)=C(C#N)C#N | 4.1 µM
N#CC(C#N)=C1NCCN1CCNCc1ccc(CN2CCOCC2)o1 | 13 µM
N#CC(C#N)=C1NCCN1CCNCc1ccc(CN2CC=CCC2)o1 | 0.081 µM
CC1CCCN(Cc2ccc(CNCCN3CCNC3=C(C#N)C#N)o2)C1 (stereo not given) | 0.41 µM

Organism: Cavia porcellus
Assay: In vitro gastrointestinal motility enhancing activity was determined by potentiating action on electrically evoked contraction of the isolated guinea pig ileum; no effect
Type: functional
Conditions: not given

SMILES | EC30
CC1CCCC(C)N1Cc1ccc(CNCCN2CCNC2=C(C#N)C#N)o1 (stereo not given) | inactive
CN(C)Cc1ccc(CNCCN2CCN/C2=C\[N+](=O)[O-])o1 | inactive
N#CC(C#N)=C1Nc2ccccc2N1CCNCc1ccc(CN2CCCCC2)o1 | inactive
CNC(NCCNCc1ccc(COC)o1)=C(C#N)C#N | inactive

Organism: Cavia porcellus
Assay: In vitro gastrointestinal motility enhancing activity was determined by potentiating action on electrically evoked contraction of the isolated guinea pig ileum;No effect.
Type: functional
Conditions: not given

SMILES | EC30
COc1cc(N)c(Cl)cc1C(=O)NCCNCc1ccc(CN(C)C)o1 | No effect
